Each structure is given as a SMILES string. Where two headings read alike, the source gives them in different places.

Assay [1] concerns Green Peach Aphid (Myzus Persicae). Nature of the assay: Insecticidal test for green peach aphid in foliar spray assay (col. MYZUPE). It is filed as in vivo. Conditions: for pest or weed control at 200 ppm: Myzus persicae, 72 h, read-out: MYZUPE 200 ppm (Corrected % Control, rating). The essentials:
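Cabbage seedlings with 2-3 true leaves, infested with 20-50 wingless adult and nymph aphids one day earlier, sprayed to runoff at 200 ppm (acetone/methanol stock diluted in 0.025% Tween 20), four pots per treatment. After 3 days at ~25 °C, 40% RH, live aphids counted; corrected % control versus solvent-sprayed plants.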

Assay [2] concerns Sweetpotato Whitefly-Crawler (Bemisia Tabaci). Nature of the assay: Insecticidal test for sweetpotato whitefly-crawler in foliar spray assay (col. BEMITA). It counts as in vivo. The note with it: for pest or weed control at 200 ppm: Bemisia tabaci, read-out: BEMITA 200 ppm (Corrected % Control, rating). The essentials:
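Cotton plants (one 3-5 cm true leaf) infested with whitefly eggs (100-300/plant), held 5-6 days at 82° F, 50% RH until crawlers developed. Sprayed to runoff at 200 ppm (acetone stock diluted in 0.025% Tween 20), four plants per treatment. Live nymphs counted after 8-9 days; % control by Abbott's correction versus solvent check.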

`Cc1nc(-c2cccnc2)sc1N(C)C(=O)C(C)NC(=O)OC(C)(C)C` (stereo not drawn) [Compound 282]: the pest or weed control at 200 ppm in assay [1] (green peach aphid) and in assay [2] (sweetpotato whitefly-crawler) was 80 to 100% each time.

`CCN(C(=O)Cc1ccc(Cl)nc1)c1sc(-c2cccnc2)nc1Cl` [Compound 561]: the pest or weed control at 200 ppm in assay [1] (Abbott's correction formula) was 80 to 100%; in assay [2] (Abbott's correction formula), less than 80%.

Consider `CSCC(C)C(=O)N(CC(C)C)c1sc(-c2cccnc2)nc1C` (stereo not drawn) [Compound 223], for which the pest or weed control at 200 ppm in assay [1] (green peach aphid) and in assay [2] (sweetpotato whitefly-crawler) was 80 to 100% in each case.

Take `CN(C(=O)C1CCN1C(=O)OC(C)(C)C)c1sc(-c2cccnc2)nc1Cl` (stereo not drawn) [Compound 339]: the “MYZUPE 200 ppm (Corrected % Control, rating)” value in assay [1] (green peach aphid) was “B (Less than 80)”. For the same compound, in assay [2] (sweetpotato whitefly-crawler), the “BEMITA 200 ppm (Corrected % Control, rating)” value is “A (80-100)”.

With `CN(C(=O)C(F)(F)F)c1cnc(-c2cccnc2)s1` [Compound 2, 2,2,2-Trifluoro-N-methyl-N-(2-pyridin-3-yl-thiazol-5-yl)-acetamide], the pest or weed control at 200 ppm in assay [1] (green peach aphid) and in assay [2] (sweetpotato whitefly-crawler) was less than 80% each time.

As for `CCN(C(=O)Cc1ccncc1)c1sc(-c2cccnc2)nc1Cl` [Compound 562], the pest or weed control at 200 ppm in assay [1] (Abbott's correction formula) was 80 to 100%; in assay [2] (Abbott's correction formula), less than 80%.

In the case of `Cc1nc(-c2cccnc2)sc1NC(=O)CC1CC1` [Compound 417], the pest or weed control at 200 ppm in assay [1] (green peach aphid) and in assay [2] (sweetpotato whitefly-crawler) was 80 to 100% each time.

Regarding `Cc1nc(-c2cncc(F)c2)sc1N(C)C(=O)C1CCCNC1` (stereo not drawn) [Compound 581], the pest or weed control at 200 ppm in assay [1] (Abbott's correction formula) and in assay [2] (Abbott's correction formula) was less than 80% throughout.

As for `Cc1nc(-c2cccnc2)sc1N(C)C(=O)c1cscn1` [Compound 365], the pest or weed control at 200 ppm is 80 to 100% in assay [1] (green peach aphid) and less than 80% in assay [2] (sweetpotato whitefly-crawler).

On to `CSC(C)C(=O)N(C)c1sc(-c2cccnc2)nc1C` (stereo not drawn) [Compound 360], for which the pest or weed control at 200 ppm in assay [1] (green peach aphid) was 80 to 100%; in assay [2] (sweetpotato whitefly-crawler) it was less than 80%.

Take `Cc1nc(-c2cncc(F)c2)sc1N(C)C(=O)OC(C)(C)C` [Compound 165]: the pest or weed control at 200 ppm in assay [1] (green peach aphid) and in assay [2] (sweetpotato whitefly-crawler) was 80 to 100% each time.

On to `CCN(C(=O)CCS(C)(=O)=O)c1sc(-c2cccnc2)nc1C` [Compound 239], for which the “MYZUPE 200 ppm (Corrected % Control, rating)” value in assay [1] (green peach aphid) was “A (80-100)”. Besides, the “BEMITA 200 ppm (Corrected % Control, rating)” value in assay [2] (sweetpotato whitefly-crawler) is listed as “A (80-100)”.

Turning to `C=CC(=O)N(C(=O)C(C)CSC)c1sc(-c2cccnc2)nc1C` (stereo not drawn) [Compound 204], the pest or weed control at 200 ppm in assay [1] (green peach aphid) was 80 to 100%; in assay [2] (sweetpotato whitefly-crawler) it was less than 80%.

As for `Cc1nc(-c2cccnc2)sc1N(CCF)C(=O)OC(C)(C)C` [Compound 301], the pest or weed control at 200 ppm in assay [1] (green peach aphid) and in assay [2] (sweetpotato whitefly-crawler) was 80 to 100% in each case.

On to `CN(C(=O)CC[S+](C)[O-])c1cnc(-c2cncc(F)c2)s1` (stereo not drawn) [Compound 78, N-[2-(5-fluoropyridin-3-yl)-thiazol-5-yl]-3-methanesulfinyl-N-methyl-propionamide], for which the values for the pest or weed control at 200 ppm in assay [1] (green peach aphid) and in assay [2] (sweetpotato whitefly-crawler) were 80 to 100% and less than 80%, respectively.

As for `Cc1nc(-c2cncc(F)c2)sc1N(C)C(=O)C(C)C[S+](C)[O-]` (stereo not drawn) [Compound 86], the pest or weed control at 200 ppm in assay [1] (green peach aphid) and in assay [2] (sweetpotato whitefly-crawler) was 80 to 100% in each case.

Turning to `CCN(C(=O)c1ccc(C[S+](C)[O-])o1)c1sc(-c2cccnc2)nc1Cl` (stereo not drawn) [Compound 549], the pest or weed control at 200 ppm in assay [1] (Abbott's correction formula) and in assay [2] (Abbott's correction formula) was 80 to 100% throughout.

`CC(=O)c1ccc(C(=O)Nc2sc(-c3cccnc3)nc2C)s1` [Compound 347]: the pest or weed control at 200 ppm in assay [1] (green peach aphid) and in assay [2] (sweetpotato whitefly-crawler) was less than 80% in each case.

In the case of `CCCN(C(=O)OC(C)(C)C)c1sc(-c2cccnc2)nc1C` [Compound 284], the pest or weed control at 200 ppm in assay [1] (green peach aphid) and in assay [2] (sweetpotato whitefly-crawler) was 80 to 100% throughout.

As for `CSC(C)C(=O)N(C(=O)OC(C)(C)C)c1sc(-c2cccnc2)nc1C` (stereo not drawn) [Compound 357], the pest or weed control at 200 ppm in assay [1] (green peach aphid) and in assay [2] (sweetpotato whitefly-crawler) was 80 to 100% in each case.

Turning to `Cc1nc(-c2cccnc2)sc1N(C)C(=O)OC1(C)CCCCC1` [Compound 493], the pest or weed control at 200 ppm in assay [1] (Abbott's correction formula) and in assay [2] (Abbott's correction formula) was 80 to 100% each time.

Regarding `CN(C(=O)c1ccc(=O)n(C)n1)c1sc(-c2cccnc2)nc1Cl` [Compound 405], in assay [1] (green peach aphid), the “MYZUPE 200 ppm (Corrected % Control, rating)” value is “A (80-100)”. Moreover, in assay [2] (sweetpotato whitefly-crawler), the “BEMITA 200 ppm (Corrected % Control, rating)” value is listed as “B (Less than 80)”.

In the case of `CSCC(C)C(=O)N(C(=O)OC(C)(C)C)c1sc(-c2cncc(C)c2)nc1C` (stereo not drawn) [Compound 156, [4-methyl-2-(5-methyl-pyridin-3-yl)-thiazol-5-yl]-(2-methyl-3-methylsulfanyl-propionyl)-carbamic acid tert-butyl ester], the pest or weed control at 200 ppm in assay [1] (green peach aphid) is 80 to 100%; in assay [2] (sweetpotato whitefly-crawler), less than 80%.

`CCN(C(=O)CCSC)c1sc(-c2cccnc2)nc1Br` [Compound 458]: the pest or weed control at 200 ppm in assay [1] (Abbott's correction formula) and in assay [2] (Abbott's correction formula) was 80 to 100% in each case.

Turning to `COc1cncc(-c2nc(C)c(NC(=O)C(C)CSC)s2)c1` (stereo not drawn) [Compound 137], the pest or weed control at 200 ppm in assay [1] (green peach aphid) and in assay [2] (sweetpotato whitefly-crawler) was less than 80% throughout.

Turning to `COCCN(C(=O)C(C)CSC)c1sc(-c2cccnc2)nc1C` (stereo not drawn) [Compound 465], the pest or weed control at 200 ppm in assay [1] (Abbott's correction formula) is 80 to 100%; in assay [2] (Abbott's correction formula) it was less than 80%.

As for `CSCCNC(=O)N(C)c1cnc(-c2cncc(F)c2)s1` [Compound 72, [2-(5-fluoropyridin-3-yl)-thiazol-5-yl]-1-methyl-3-(2-methylsulfanyl-ethyl)urea], the pest or weed control at 200 ppm in assay [1] (green peach aphid) was 80 to 100%; in assay [2] (sweetpotato whitefly-crawler), less than 80%.

For the compound `CSCC(C)(C)C(=O)N(C)c1sc(-c2cncc(F)c2)nc1C` [Compound 39], the pest or weed control at 200 ppm in assay [1] (green peach aphid) and in assay [2] (sweetpotato whitefly-crawler) was 80 to 100% throughout.

As to `CCN(C(=O)Cc1ccsc1)c1sc(-c2cccnc2)nc1Cl` [Compound 528], the pest or weed control at 200 ppm was less than 80% in assay [1] (Abbott's correction formula) and 80 to 100% in assay [2] (Abbott's correction formula).

Consider `CCSCC(=O)N(C)c1sc(-c2cccnc2)nc1C` [Compound 358], for which the pest or weed control at 200 ppm in assay [1] (green peach aphid) and in assay [2] (sweetpotato whitefly-crawler) was 80 to 100% in each case.

On to `Cc1nc(-c2cccnc2)sc1N(C)C(=O)OCC(F)(F)F` [Compound 486], for which the pest or weed control at 200 ppm in assay [1] (Abbott's correction formula) is 80 to 100%; in assay [2] (Abbott's correction formula), less than 80%.

`CSCCOC(=O)N(C)c1cnc(-c2cncc(F)c2)s1` [Compound 75, [2-(5-fluoropyridin-3-yl)-thiazol-5-yl]-methyl-carbamic acid 2-methylsulfanyl-ethyl Ester]: the pest or weed control at 200 ppm was 80 to 100% in assay [1] (green peach aphid) and less than 80% in assay [2] (sweetpotato whitefly-crawler).

Regarding `Cc1nc(-c2cccnc2)sc1N(C)C(=O)C1=CC(=O)CC(C)(C)O1` [Compound 327], the pest or weed control at 200 ppm in assay [1] (green peach aphid) and in assay [2] (sweetpotato whitefly-crawler) was less than 80% throughout.

Take `CN(C(=O)c1cccc(SC(F)F)c1)c1sc(-c2cccnc2)nc1Cl` [Compound 382]: the pest or weed control at 200 ppm in assay [1] (green peach aphid) and in assay [2] (sweetpotato whitefly-crawler) was less than 80% throughout.

For the compound `CCN(C(=O)CCSC)c1sc(-c2cncc(F)c2)nc1F` [Compound 425], the pest or weed control at 200 ppm in assay [1] (green peach aphid) and in assay [2] (sweetpotato whitefly-crawler) was 80 to 100% in each case.

Regarding `CCN(C(=O)C(C)(C)CSC)c1sc(-c2cccnc2)nc1C` [Compound 237], the pest or weed control at 200 ppm in assay [1] (green peach aphid) and in assay [2] (sweetpotato whitefly-crawler) was 80 to 100% each time.

`COC(=O)/C=C/CN(C(=O)C(C)CSC)c1sc(-c2cccnc2)nc1C` (stereo not drawn) [Compound 464]: the pest or weed control at 200 ppm in assay [1] (Abbott's correction formula) was 80 to 100%; in assay [2] (Abbott's correction formula) it was less than 80%.

As to `CCN(C(=O)CC(C)SC)c1sc(-c2cncc(F)c2)nc1Cl` (stereo not drawn) [Compound 446], the pest or weed control at 200 ppm in assay [1] (Abbott's correction formula) and in assay [2] (Abbott's correction formula) was 80 to 100% throughout.

As to `CCN(C(=O)CC[S+](C)[O-])c1sc(-c2cccnc2)nc1Cl` (stereo not drawn) [Compound 314], the pest or weed control at 200 ppm in assay [1] (green peach aphid) and in assay [2] (sweetpotato whitefly-crawler) was 80 to 100% throughout.

As to `CSCC[C@H](NC(=O)OC(C)(C)C)C(=O)N(C)c1sc(-c2cccnc2)nc1C` [Compound 281], the pest or weed control at 200 ppm in assay [1] (green peach aphid) and in assay [2] (sweetpotato whitefly-crawler) was less than 80% throughout.

For `CCN(C(=O)c1ccc(C(C)=O)s1)c1sc(-c2cccnc2)nc1Cl` [Compound 543], the pest or weed control at 200 ppm in assay [1] (Abbott's correction formula) and in assay [2] (Abbott's correction formula) was 80 to 100% throughout.

`CSCC(=O)N(C)c1sc(-c2cccnc2)nc1C` [Compound 367]: the pest or weed control at 200 ppm in assay [1] (green peach aphid) was 80 to 100%; in assay [2] (sweetpotato whitefly-crawler) it was less than 80%.

Regarding `CCN(C(=O)Cc1ccc(Cl)cc1)c1sc(-c2cccnc2)nc1Cl` [Compound 575], the pest or weed control at 200 ppm in assay [1] (Abbott's correction formula) was 80 to 100%; in assay [2] (Abbott's correction formula) it was less than 80%.

Turning to `COCCN(C(=O)OC(C)(C)C)c1sc(-c2cccnc2)nc1C` [Compound 460], the pest or weed control at 200 ppm in assay [1] (Abbott's correction formula) and in assay [2] (Abbott's correction formula) was less than 80% throughout.

`CN(C(=O)CN(C)S(C)(=O)=O)c1sc(-c2cccnc2)nc1Cl` [Compound 434]: the pest or weed control at 200 ppm in assay [1] (Abbott's correction formula) and in assay [2] (Abbott's correction formula) was 80 to 100% throughout.

For `CCN(C(=O)C(C)C)c1sc(-c2cncc(F)c2)nc1F` [Compound 424], the pest or weed control at 200 ppm in assay [1] (green peach aphid) and in assay [2] (sweetpotato whitefly-crawler) was 80 to 100% in each case.

With `CN(C(=O)CC[S+](C)[O-])c1sc(-c2cccnc2)nc1C(F)(F)F` (stereo not drawn) [Compound 88], the pest or weed control at 200 ppm in assay [1] (green peach aphid) and in assay [2] (sweetpotato whitefly-crawler) was 80 to 100% throughout.

`Cc1nc(-c2cccnc2)sc1NC(=O)CCC1CC1` [Compound 416]: the pest or weed control at 200 ppm in assay [1] (green peach aphid) and in assay [2] (sweetpotato whitefly-crawler) was 80 to 100% each time.

These data come from patent US8853246B2 (Dow AgroSciences LLC, priority 2009, dated 2014).
